Where two headings read alike, the source gives them in different places.
Legend:
[1] = Acute toxicity per os in the mouse (LD50 at the 14th observation day); details: in vivo, po
Method: (§1) The analgesic activity of the compounds of for mula I, administered by the oral route has been determined by means of the following tests: • - Phenylquinone test in mice (Hendershot and Forsa ith - J. Pharmacol. Exp. Ther. 123, 237 (1959)) • - Hot plate test - Male albino mice, treated with increasing doses of the compound under test, are placed on a thermostatized plate at 55°C. The time necessary for the mouse to react to the painful stimulus is then measured. An effective dose 50 (ED50) is defined as the dose inducing a 50% increase of the reaction time, with respect to control animals. • - The acute toxicity per os has been studied in the mouse and in the rat and expressed as LD50 at the 14th observation day.

[2] = Acute toxicity per os in the rat (LD50 at the 14th observation day); details: in vivo, po
Method: as §1

[3] = system: mice; assay: Phenylquinone test in mice (analgesic activity); type: in vivo; details: Mus musculus
Method: as §1

[4] = system: Male albino mice; assay: Hot plate test (thermostatized plate at 55°C, reaction time to painful stimulus); type: in vivo; details: Mus musculus
[5] = system: cyclooxygenase and the prostaglandinsynthetase; details: known compound, background statement; cited from earlier work
[6] = mice, oral, read-out: PHENYLQUINONE ED50 OS
[7] = sc, S.C., ED50 = dose inducing a 50% increase of the reaction time versus controls, plate at 55°C, read-out: HOT PLATE ED50 S.C. MICE

Row | SMILES | LD50 at 336 h ([1]; read-out: LD50 MICE OS) [mg/kg] | LD50 at 336 h [2] [mg/kg] | ED50 [3, 6] [mg/kg] | ED50 [4, 7] [mg/kg] | LD50 at 336 h ([1]; mice, per os, 14th observation day, read-out: LD50 MICE OS) [mg/kg] | LD50 at 336 h ([2]; per os, 14th observation day) [mg/kg] | inhibits the cyclooxygenase and the prostaglandinesynthetase [5] | LD50 at 336 h ([1]; comparison compound, per os, read-out: LD50 mouse per os) [mg/kg] | ED50 ([3]; po, read-out: ED50 phenylquinone) [mg/kg] | ED50 ([4]; comparison compound, route not given, read-out: ED50 hot plate) [mg/kg]
1 | Cc1c(C(=O)O)c(C)n(Cc2ccccc2Cl)c1C(=O)c1ccc(Cl)cc1 | 1200 | > 1600 | 10.8 | 5.5 | – | – | – | – | – | –
2 | Cc1c(C(=O)O)c(C)n(Cc2ccccc2)c1C(=O)c1ccc(Cl)cc1 | 1500 | > 1600 | 7.6 | 4.8 | – | – | – | – | – | –
3 | CCCCn1c(C)c(C(=O)O)c(C)c1C(=O)c1ccc(Cl)cc1 [R=C4H9, R1=Cl, R2=H, R3=H] | 1300 | > 1600 | 6.3 | 2.9 | – | – | – | – | – | –
4 | Cc1ccc(C(=O)c2c(C)c(C(=O)O)c(C)n2C)cc1 [R=CH3, R1=CH3, R2=H, R3=H] | 1400 | > 1600 | 10 | > 10 | – | – | – | – | – | –
5 | Cc1c(C(=O)O)c(C)n(C)c1C(=O)c1ccc(Cl)c(Cl)c1 [R=CH3, R1=Cl, R2=Cl, R3=H] | 800 | > 1600 | 7.5 | 4.7 | – | – | – | – | – | –
6 | Cc1c(C(=O)O)c(C)n(C)c1C(=O)c1ccc(Cl)cc1Cl [R=CH3, R1=Cl, R2=H, R3=Cl, 1,2,4-Trimethyl-5-(2,4-dichlorobenzoyl)-pyrrol-3-carboxylic acid] | – | – | 10.9 | 5.7 | 1400 | 1700 | – | – | – | –
7 | Cc1c(C(=O)O)c(C)n(C)c1C(=O)c1ccc(Cl)cc1 [R=CH3, R1=Cl, R2=H, R3=H, reference compound] | 800 | > 1600 | 4.6 | 2.3 | – | – | – | – | – | –
8 | COc1ccc(C(=O)c2c(C)c(C(=O)O)c(C)n2C)cc1 [R=CH3, R1=OCH3, R2=H, R3=H] | > 1600 | > 1600 | 8.4 | 7.6 | – | – | – | – | – | –
9 | Cc1cc(CC(=O)O)n(C)c1C(=O)c1ccc(Cl)cc1 [Zomepirac, 5-(p-chlorobenzoyl)-1,4-dimethyl-pyrrol-2-acetic acid] | – | – | – | – | – | – | inhibits | – | – | –
10 | COc1ccc2c3c1O[C@H]1[C@@H](O)C=C[C@H]4[C@@H](C2)N(C)CC[C@@]341.Cl [codeine hydrochloride, reference compound] | – | – | – | – | – | – | – | 300 | 5.6 | 25
